{"source": "PubChem BioAssay (NCI)", "assay_in_all_cases": "growth of human tumour cells (NCI), 48 h", "key": {"MOLT-4 leukemia": {"system": "MOLT-4 leukemia"}, "OVCAR-3 ovarian": {"system": "OVCAR-3 ovarian"}, "CCRF-CEM leukemia": {"system": "CCRF-CEM leukemia"}, "SF-539 CNS": {"system": "SF-539 CNS"}, "MALME-3M melanoma": {"system": "MALME-3M melanoma"}, "T-47D breast": {"system": "T-47D breast"}, "IGROV1 ovarian": {"system": "IGROV1 ovarian"}, "OVCAR-5 ovarian": {"system": "OVCAR-5 ovarian"}, "NCI-H460 lung": {"system": "NCI-H460 lung"}, "SW-620 colon": {"system": "SW-620 colon"}, "SK-MEL-5 melanoma": {"system": "SK-MEL-5 melanoma"}, "HT29 colon": {"system": "HT29 colon"}, "HS 578T breast": {"system": "HS 578T breast"}, "UO-31 renal": {"system": "UO-31 renal"}, "HCT-15 colon": {"system": "HCT-15 colon"}, "A549 NSCLC": {"system": "A549 NSCLC"}, "EKVX NSCLC": {"system": "EKVX NSCLC"}, "HCC-2998 colon": {"system": "HCC-2998 colon"}, "ACHN renal": {"system": "ACHN renal"}, "NCI-H226 lung": {"system": "NCI-H226 lung"}, "DU-145 prostate": {"system": "DU-145 prostate"}, "UACC-62 melanoma": {"system": "UACC-62 melanoma"}, "COLO 205 colon": {"system": "COLO 205 colon"}, "RXF 393 renal": {"system": "RXF 393 renal"}, "BT-549 breast": {"system": "BT-549 breast"}, "OVCAR-8 ovarian": {"system": "OVCAR-8 ovarian"}, "786-0 renal": {"system": "786-0 renal"}, "K-562 leukemia": {"system": "K-562 leukemia"}, "SF-268 CNS": {"system": "SF-268 CNS"}, "CAKI-1 renal": {"system": "CAKI-1 renal"}, "HCT-116 colon": {"system": "HCT-116 colon"}, "KM12 colon": {"system": "KM12 colon"}, "NCI-H522 lung": {"system": "NCI-H522 lung"}, "HOP-62 NSCLC": {"system": "HOP-62 NSCLC"}, "SNB-75 CNS": {"system": "SNB-75 CNS"}, "NCI-H23 lung": {"system": "NCI-H23 lung"}, "MDA-MB-231 breast": {"system": "MDA-MB-231 breast"}, "NCI/ADR-RES ovarian": {"system": "NCI/ADR-RES ovarian"}, "SK-MEL-28 melanoma": {"system": "SK-MEL-28 melanoma"}, "SF-295 CNS": {"system": "SF-295 CNS"}, "U251 CNS": {"system": "U251 CNS"}, "SNB-19 CNS": {"system": "SNB-19 CNS"}, "UACC-257 melanoma": {"system": "UACC-257 melanoma"}, "LOX IMVI melanoma": {"system": "LOX IMVI melanoma"}, "HOP-92 NSCLC": {"system": "HOP-92 NSCLC"}, "A498 renal": {"system": "A498 renal"}, "RPMI-8226 leukemia": {"system": "RPMI-8226 leukemia"}, "TK-10 renal": {"system": "TK-10 renal"}, "OVCAR-4 ovarian": {"system": "OVCAR-4 ovarian"}, "PC-3 prostate": {"system": "PC-3 prostate"}, "M14 melanoma": {"system": "M14 melanoma"}, "SK-MEL-2 melanoma": {"system": "SK-MEL-2 melanoma"}, "SK-OV-3 ovarian": {"system": "SK-OV-3 ovarian"}, "MDA-MB-435": {"system": "MDA-MB-435"}}, "note": "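Results reflect a 48-hour exposure of cells in 96-well plates to compound at five concentrations. TGI marks complete inhibition of growth.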", "data": [{"smiles": "CC(C)(C)c1ccc(O)c(C(O)c2cccnc2)c1", "note": "(stereo unspecified)", "values": [{"measurement": "TGI", "setting": "MOLT-4 leukemia", "result": "> 100", "unit": "µM"}, {"measurement": "TGI", "setting": "OVCAR-3 ovarian", "result": "> 100", "unit": "µM"}, {"measurement": "TGI", "setting": "CCRF-CEM leukemia", "result": "> 100", "unit": "µM"}, {"measurement": "TGI", "setting": "SF-539 CNS", "result": "> 100", "unit": "µM"}, {"measurement": "TGI", "setting": "MALME-3M melanoma", "result": "> 100", "unit": "µM"}, {"measurement": "TGI", "setting": "T-47D breast", "result": 53.7, "unit": "µM"}, {"measurement": "TGI", "setting": "IGROV1 ovarian", "result": "> 100", "unit": "µM"}, {"measurement": "TGI", "setting": "OVCAR-5 ovarian", "result": "> 100", "unit": "µM"}, {"measurement": "TGI", "setting": "NCI-H460 lung", "result": "> 100", "unit": "µM"}, {"measurement": "TGI", "setting": "SW-620 colon", "result": "> 100", "unit": "µM"}, {"measurement": "TGI", "setting": "SK-MEL-5 melanoma", "result": "> 100", "unit": "µM"}, {"measurement": "TGI", "setting": "HT29 colon", "result": "> 100", "unit": "µM"}, {"measurement": "TGI", "setting": "HS 578T breast", "result": "> 100", "unit": "µM"}, {"measurement": "TGI", "setting": "UO-31 renal", "result": "> 100", "unit": "µM"}, {"measurement": "TGI", "setting": "HCT-15 colon", "result": "> 100", "unit": "µM"}, {"measurement": "TGI", "setting": "A549 NSCLC", "result": "> 100", "unit": "µM"}, {"measurement": "TGI", "setting": "EKVX NSCLC", "result": "> 100", "unit": "µM"}, {"measurement": "TGI", "setting": "HCC-2998 colon", "result": "> 100", "unit": "µM"}, {"measurement": "TGI", "setting": "ACHN renal", "result": "> 100", "unit": "µM"}, {"measurement": "TGI", "setting": "NCI-H226 lung", "result": "> 100", "unit": "µM"}, {"measurement": "TGI", "setting": "DU-145 prostate", "result": "> 100", "unit": "µM"}, {"measurement": "TGI", "setting": "UACC-62 melanoma", "result": "> 100", "unit": "µM"}, {"measurement": "TGI", "setting": "COLO 205 colon", "result": "> 100", "unit": "µM"}, {"measurement": "TGI", "setting": "RXF 393 renal", "result": "> 100", "unit": "µM"}, {"measurement": "TGI", "setting": "BT-549 breast", "result": "> 100", "unit": "µM"}, {"measurement": "TGI", "setting": "OVCAR-8 ovarian", "result": "> 100", "unit": "µM"}, {"measurement": "TGI", "setting": "786-0 renal", "result": "> 100", "unit": "µM"}, {"measurement": "TGI", "setting": "K-562 leukemia", "result": "> 100", "unit": "µM"}, {"measurement": "TGI", "setting": "SF-268 CNS", "result": "> 100", "unit": "µM"}, {"measurement": "TGI", "setting": "CAKI-1 renal", "result": "> 100", "unit": "µM"}, {"measurement": "TGI", "setting": "HCT-116 colon", "result": "> 100", "unit": "µM"}, {"measurement": "TGI", "setting": "KM12 colon", "result": "> 100", "unit": "µM"}, {"measurement": "TGI", "setting": "NCI-H522 lung", "result": "> 100", "unit": "µM"}, {"measurement": "TGI", "setting": "HOP-62 NSCLC", "result": "> 100", "unit": "µM"}, {"measurement": "TGI", "setting": "SNB-75 CNS", "result": "> 100", "unit": "µM"}, {"measurement": "TGI", "setting": "NCI-H23 lung", "result": "> 100", "unit": "µM"}, {"measurement": "TGI", "setting": "MDA-MB-231 breast", "result": "> 100", "unit": "µM"}, {"measurement": "TGI", "setting": "NCI/ADR-RES ovarian", "result": "> 100", "unit": "µM"}, {"measurement": "TGI", "setting": "SK-MEL-28 melanoma", "result": "> 100", "unit": "µM"}]}, {"smiles": "COC(=O)C(N)CCCC(N)C(=O)NC(C)C(=O)NC(CCC(=O)NCCCNc1ccc([N+](=O)[O-])c2[nH]c3ccccc3c(=O)c12)C(N)=O", "note": "(stereo unspecified)", "values": [{"measurement": "TGI", "setting": "OVCAR-3 ovarian", "result": 24.9, "unit": "µM"}, {"measurement": "TGI", "setting": "CCRF-CEM leukemia", "result": 14.3, "unit": "µM"}, {"measurement": "TGI", "setting": "SF-295 CNS", "result": 20.9, "unit": "µM"}, {"measurement": "TGI", "setting": "U251 CNS", "result": 18.4, "unit": "µM"}, {"measurement": "TGI", "setting": "SNB-19 CNS", "result": 15, "unit": "µM"}, {"measurement": "TGI", "setting": "UACC-257 melanoma", "result": 23.2, "unit": "µM"}, {"measurement": "TGI", "setting": "T-47D breast", "result": 33.9, "unit": "µM"}, {"measurement": "TGI", "setting": "OVCAR-5 ovarian", "result": 22.7, "unit": "µM"}, {"measurement": "TGI", "setting": "LOX IMVI melanoma", "result": 13, "unit": "µM"}, {"measurement": "TGI", "setting": "NCI-H460 lung", "result": 17.2, "unit": "µM"}, {"measurement": "TGI", "setting": "HOP-92 NSCLC", "result": 26.1, "unit": "µM"}, {"measurement": "TGI", "setting": "A498 renal", "result": 30.7, "unit": "µM"}, {"measurement": "TGI", "setting": "SW-620 colon", "result": 14.7, "unit": "µM"}, {"measurement": "TGI", "setting": "SK-MEL-5 melanoma", "result": 23.9, "unit": "µM"}, {"measurement": "TGI", "setting": "RPMI-8226 leukemia", "result": 14, "unit": "µM"}, {"measurement": "TGI", "setting": "TK-10 renal", "result": 23.2, "unit": "µM"}, {"measurement": "TGI", "setting": "UO-31 renal", "result": 13.8, "unit": "µM"}, {"measurement": "TGI", "setting": "OVCAR-4 ovarian", "result": 20.2, "unit": "µM"}, {"measurement": "TGI", "setting": "HCT-15 colon", "result": 15, "unit": "µM"}, {"measurement": "TGI", "setting": "PC-3 prostate", "result": 19.8, "unit": "µM"}, {"measurement": "TGI", "setting": "A549 NSCLC", "result": 12.3, "unit": "µM"}, {"measurement": "TGI", "setting": "EKVX NSCLC", "result": 20.2, "unit": "µM"}, {"measurement": "TGI", "setting": "HCC-2998 colon", "result": 21.8, "unit": "µM"}, {"measurement": "TGI", "setting": "ACHN renal", "result": 16.2, "unit": "µM"}, {"measurement": "TGI", "setting": "NCI-H226 lung", "result": 27.9, "unit": "µM"}, {"measurement": "TGI", "setting": "DU-145 prostate", "result": 19.1, "unit": "µM"}, {"measurement": "TGI", "setting": "UACC-62 melanoma", "result": 10.8, "unit": "µM"}, {"measurement": "TGI", "setting": "M14 melanoma", "result": 17.9, "unit": "µM"}, {"measurement": "TGI", "setting": "COLO 205 colon", "result": 15.2, "unit": "µM"}, {"measurement": "TGI", "setting": "RXF 393 renal", "result": 25.1, "unit": "µM"}, {"measurement": "TGI", "setting": "BT-549 breast", "result": 25.7, "unit": "µM"}, {"measurement": "TGI", "setting": "OVCAR-8 ovarian", "result": 13.9, "unit": "µM"}, {"measurement": "TGI", "setting": "786-0 renal", "result": 16.6, "unit": "µM"}, {"measurement": "TGI", "setting": "K-562 leukemia", "result": 22.6, "unit": "µM"}, {"measurement": "TGI", "setting": "SK-MEL-2 melanoma", "result": 46.2, "unit": "µM"}, {"measurement": "TGI", "setting": "SF-268 CNS", "result": 13.8, "unit": "µM"}, {"measurement": "TGI", "setting": "CAKI-1 renal", "result": 19.8, "unit": "µM"}, {"measurement": "TGI", "setting": "HCT-116 colon", "result": 12.4, "unit": "µM"}, {"measurement": "TGI", "setting": "KM12 colon", "result": 19.1, "unit": "µM"}, {"measurement": "TGI", "setting": "HOP-62 NSCLC", "result": 22.4, "unit": "µM"}, {"measurement": "TGI", "setting": "SK-OV-3 ovarian", "result": 26.7, "unit": "µM"}, {"measurement": "TGI", "setting": "SNB-75 CNS", "result": 21.6, "unit": "µM"}, {"measurement": "TGI", "setting": "NCI-H23 lung", "result": 17.9, "unit": "µM"}, {"measurement": "TGI", "setting": "MDA-MB-231 breast", "result": 28.8, "unit": "µM"}, {"measurement": "TGI", "setting": "MDA-MB-435", "result": 17.6, "unit": "µM"}, {"measurement": "TGI", "setting": "NCI/ADR-RES ovarian", "result": 25, "unit": "µM"}, {"measurement": "TGI", "setting": "SK-MEL-28 melanoma", "result": 22, "unit": "µM"}]}]}
